# Key:
# Assay type in all cases: functional
# [1] = tested on: Mycobacterium tuberculosis; assay: Antimicrobial activity against Mycobacterium tuberculosis H37Rv ATCC 27294 incubated for 7 days by microplate Alamar blue assay; details: H37Rv ATCC 27294, 168 h
# [2] = tested on: Staphylococcus epidermidis; assay: Antimicrobial activity against methicillin-susceptible Staphylococcus epidermidis ATCC 12228 incubated for 18 to 24 hrs by two-fold serial dilution method
# [3] = tested on: Staphylococcus aureus; assay: Antimicrobial activity against methicillin-susceptible Staphylococcus aureus ATCC 29213 incubated for 18 to 24 hrs by two-fold serial dilution method
# [4] = tested on: Staphylococcus aureus; assay: Antimicrobial activity against methicillin-resistant Staphylococcus aureus ATCC 33591 incubated for 18 to 24 hrs by two-fold serial dilution method
# [5] = tested on: Enterococcus faecium; assay: Antimicrobial activity against Enterococcus faecium ATCC 700221 incubated for 18 to 24 hrs by two-fold serial dilution method
# [6] = tested on: Streptococcus pneumoniae; assay: Antibacterial activity against Streptococcus pneumoniae ATCC 49619 incubated for 24 hrs; details: ATCC 49619, 24 h
# [7] = tested on: Staphylococcus aureus; assay: Antimicrobial activity against Staphylococcus aureus ATCC 29213 incubated for 24 hrs; details: ATCC 29213, 24 h
# [8] = tested on: Pseudomonas aeruginosa; assay: Antimicrobial activity against Pseudomonas aeruginosa ATCC 27853 incubated for 24 hrs; details: ATCC 27853, 24 h
# [9] = tested on: Escherichia coli; assay: Antimicrobial activity against Escherichia coli ATCC 25922 incubated for 24 hrs; details: ATCC 25922, 24 h
# [10] = tested on: Escherichia coli; assay: Antibacterial activity against Escherichia coli incubated for 18 hrs by CLSI-based broth microdilution method
# [11] = tested on: Pseudomonas aeruginosa; assay: Antimicrobial activity against Pseudomonas aeruginosa ATCC 19429 incubated for 18 hrs by CLSI-based microbroth dilution method; details: ATCC 19429, 18 h
# [12] = tested on: Staphylococcus aureus; assay: Antimicrobial activity against Staphylococcus aureus ATCC 25923 incubated for 18 hrs by CLSI-based microbroth dilution method; details: ATCC 25923, 18 h
structure (smiles),measurement,setting,value
COc1c(N2CCN(C/C(C)=N/NC(=O)c3ccc(F)cc3)CC2)c(F)cc2c(=O)c(C(=O)O)cn(C3CC3)c12,MIC,[1],0.266 µM
same,MIC,[2],0.125 µg/mL
same,MIC,[3],0.125 µg/mL
same,MIC,[4],0.125 µg/mL
same,MIC,[5],> 64 µg/mL
CCn1cc(C(=O)O)c(=O)c2cc(F)c(N3CCN(C/C(=N/Nc4ccccc4)c4ccc(C)cc4)CC3)cc21,MIC,[6],100 µg/mL
same,MIC,[7],50 µg/mL
same,MIC,[8],> 100 µg/mL
same,MIC,[9],25 µg/mL
CCn1cc(C(=O)O)c(=O)c2cc(F)c(N3CCN(C/C(=N/O)c4ccc(C)cc4)CC3)cc21,MIC,[6],100 µg/mL
same,MIC,[7],50 µg/mL
same,MIC,[8],100 µg/mL
same,MIC,[9],50 µg/mL
COc1ccc(/C(CN2CCN(c3cc4c(cc3F)c(=O)c(C(=O)O)cn4C3CC3)CC2)=N\O)cc1,MIC,[6],50 µg/mL
same,MIC,[7],6.25 µg/mL
same,MIC,[8],100 µg/mL
same,MIC,[9],12.5 µg/mL
CCn1cc(C(=O)O)c(=O)c2cc(F)c(N3CCN(C/C(=N/N)c4ccc(C)cc4)CC3)cc21,MIC,[6],25 µg/mL
same,MIC,[7],12.5 µg/mL
same,MIC,[8],100 µg/mL
same,MIC,[9],25 µg/mL
CCn1cc(C(=O)O)c(=O)c2cc(F)c(N3CCN(C/C(=N/NC(N)=O)c4ccc([N+](=O)[O-])cc4)CC3)cc21,MIC,[6],12.5 µg/mL
same,MIC,[7],6.25 µg/mL
same,MIC,[8],50 µg/mL
same,MIC,[9],6.25 µg/mL
CCCCn1cc(C(=O)O)c(=O)c2cc(F)c(N3CCNCC3)cc21.Cl,MIC,[10],2 µg/mL
same,MIC,[11],16 µg/mL
same,MIC,[12],16 µg/mL
CCn1cc(C(=O)O)c(=O)c2cc(F)c(N3CCN(C/C(=N\Nc4ccccc4)c4ccc([N+](=O)[O-])cc4)CC3)cc21,MIC,[6],100 µg/mL
same,MIC,[7],50 µg/mL
same,MIC,[8],> 100 µg/mL
same,MIC,[9],50 µg/mL
COc1c(N2CCN(CCn3cncn3)CC2)c(F)cc2c(=O)c(C(=O)O)cn(C3CC3)c12,MIC,[1],4.1 µM
same,MIC,[2],4 µg/mL
same,MIC,[3],4 µg/mL
same,MIC,[4],4 µg/mL
same,MIC,[5],> 128 µg/mL
COc1ccc(Cn2cc(C(=O)O)c(=O)c3cc(F)c(N4CCNCC4)cc32)cc1.Cl,MIC,[10],128 µg/mL
same,MIC,[11],> 128 µg/mL
same,MIC,[12],64 µg/mL
CCn1cc(C(=O)O)c(=O)c2cc(F)c(N3CCN(C/C(=N/OC)c4ccc(OC)cc4)CC3)cc21,MIC,[6],100 µg/mL
same,MIC,[7],50 µg/mL
same,MIC,[8],100 µg/mL
same,MIC,[9],50 µg/mL
COc1c(N2CCN(C/C(C)=N/NC(=O)c3ccc(O)cc3)CC2)c(F)cc2c(=O)c(C(=O)O)cn(C3CC3)c12,MIC,[1],0.21 µM
same,MIC,[2],0.06 µg/mL
same,MIC,[3],0.125 µg/mL
same,MIC,[4],0.06 µg/mL
same,MIC,[5],64 µg/mL
CCN(CC)c1cc2c(cc1F)c(=O)c(C(=O)O)cn2C1CC1,MIC,[10],1 µg/mL
same,MIC,[11],32 µg/mL
same,MIC,[12],0.5 µg/mL
COc1c(N2CCN(CCn3c([N+](=O)[O-])cnc3C)CC2)c(F)cc2c(=O)c(C(=O)O)cn(C3CC3)c12,MIC,[1],1.72 µM
same,MIC,[2],1 µg/mL
same,MIC,[3],1 µg/mL
same,MIC,[4],1 µg/mL
same,MIC,[5],> 128 µg/mL
CCn1cc(C(=O)O)c(=O)c2cc(F)c(N3CCN(C/C(=N/OC)c4ccc([N+](=O)[O-])cc4)CC3)cc21,MIC,[6],100 µg/mL
same,MIC,[7],25 µg/mL
same,MIC,[8],100 µg/mL
same,MIC,[9],25 µg/mL
COc1c(N2CCN(CCCn3cc([N+](=O)[O-])nc3C)CC2)c(F)cc2c(=O)c(C(=O)O)cn(C3CC3)c12,MIC,[1],60.3 µM
same,MIC,[2],32 µg/mL
same,MIC,[3],32 µg/mL
same,MIC,[4],32 µg/mL
same,MIC,[5],> 64 µg/mL
COc1c(N2CCN(C/C(C)=N/NC(=O)c3ccc([N+](=O)[O-])cc3)CC2)c(F)cc2c(=O)c(C(=O)O)cn(C3CC3)c12,MIC,[1],0.294 µM
same,MIC,[2],0.125 µg/mL
same,MIC,[3],0.25 µg/mL
same,MIC,[4],0.25 µg/mL
same,MIC,[5],128 µg/mL
COc1ccc(/C(CN2CCN(c3cc4c(cc3F)c(=O)c(C(=O)O)cn4C3CC3)CC2)=N/NC(N)=O)cc1,MIC,[6],12.5 µg/mL
same,MIC,[7],6.25 µg/mL
same,MIC,[8],50 µg/mL
same,MIC,[9],12.5 µg/mL
COc1ccc(/C(CN2CCN(c3cc4c(cc3F)c(=O)c(C(=O)O)cn4C3CC3)CC2)=N\N)cc1,MIC,[6],12.5 µg/mL
same,MIC,[7],6.25 µg/mL
same,MIC,[8],100 µg/mL
same,MIC,[9],12.5 µg/mL
CCn1cc(C(=O)O)c(=O)c2cc(F)c(N3CCCCCC3)cc21,MIC,[10],16 µg/mL
same,MIC,[11],> 128 µg/mL
same,MIC,[12],0.5 µg/mL
O=C(O)c1cn(C2CC2)c2cc(N3CCCCCC3)c(F)cc2c1=O,MIC,[10],2 µg/mL
same,MIC,[11],> 128 µg/mL
same,MIC,[12],0.25 µg/mL
COc1c(N2CCN(CCn3ccnn3)CC2)c(F)cc2c(=O)c(C(=O)O)cn(C3CC3)c12,MIC,[1],14.2 µM
same,MIC,[2],4 µg/mL
same,MIC,[3],4 µg/mL
same,MIC,[4],4 µg/mL
same,MIC,[5],> 128 µg/mL
Cl.O=C(O)c1cn(CCO)c2cc(N3CCNCC3)c(F)cc2c1=O,MIC,[10],4 µg/mL
same,MIC,[11],64 µg/mL
same,MIC,[12],64 µg/mL
Cl.Cn1cc(C(=O)O)c(=O)c2cc(F)c(N3CCNCC3)cc21,MIC,[10],0.25 µg/mL
same,MIC,[11],2 µg/mL
same,MIC,[12],8 µg/mL
CCn1cc(C(=O)O)c(=O)c2cc(F)c(N3CCN(C/C(=N/NC(N)=O)c4ccccc4)CC3)cc21,MIC,[6],100 µg/mL
same,MIC,[7],12.5 µg/mL
same,MIC,[8],100 µg/mL
same,MIC,[9],25 µg/mL
CCn1cc(C(=O)O)c(=O)c2cc(F)c(N3CCN(C/C(=N\O)c4ccccc4)CC3)cc21,MIC,[6],100 µg/mL
same,MIC,[7],50 µg/mL
same,MIC,[8],100 µg/mL
same,MIC,[9],50 µg/mL

# — ChEMBL document CHEMBL4602605, “Fluoroquinolones structural and medicinal developments (2013-2018): Where are we now?” (Bioorg Med Chem, 2019)
